We go through ten molecules from PubChem BioAssay (NCI).

Where “and” joins values, the source holds several entries; their conditions need not be identical. Identical values can stand only once.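 Dose response: 5 concentrations. Exposure: 48 h. Format: 96-well plates. Endpoint: linear interpolation; highest concentration if not reached. The concentration for 50% growth inhibition is given as GI50. At the TGI there is no net growth.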

Some test systems named below: SF-268 CNS; NCI-H23 lung; MALME-3M melanoma; NCI-H226 lung; RXF 393 renal; OVCAR-3 ovarian; 786-0 renal; OVCAR-5 ovarian; NCI-H460 lung; A549 NSCLC.
Test in all cases: DTP human tumour cell line panel, 48 h

`Cc1ccc(S(=O)(=O)n2c(-c3ccccc3)c(-c3ccccc3)c3ccccc32)cc1`: the TGI with SF-268 CNS, with NCI-H23 lung, in the assay on MALME-3M melanoma, in the assay with NCI-H226 lung, in the assay with RXF 393 renal and in the assay with OVCAR-3 ovarian was > 100 µM in each case. The total growth inhibition concentration (TGI) in the assay with 786-0 renal, with OVCAR-5 ovarian, with NCI-H460 lung and with A549 NSCLC was > 100 µM throughout.
On to `COc1ccc(C(C)c2cc3c(cc2OC)OCO3)cc1` (stereo not given), for which the TGI with SF-268 CNS was > 56.2 µM; in the assay with NCI-H23 lung it was > 21.5 µM; with MALME-3M melanoma, 52.2 µM; with NCI-H226 lung it was 20.6 µM; in the assay with RXF 393 renal, > 100 µM; in the assay on OVCAR-3 ovarian it was 0.598 µM. The TGI is > 53.4 µM with 786-0 renal, > 100 µM with OVCAR-5 ovarian, 4.69 µM in the assay on NCI-H460 lung and > 100 µM with A549 NSCLC.
As for `COc1cc(OC(=O)c2c(O)cc(O)c(O)c2C)cc(C)c1C(=O)Oc1cc(C)c(C(=O)O)c(O)c1`, the total growth inhibition concentration (TGI) in the assay with SF-268 CNS, with NCI-H23 lung, in the assay with MALME-3M melanoma, in the assay on NCI-H226 lung, in the assay on RXF 393 renal and in the assay on OVCAR-3 ovarian was > 100 µM each time. Also, the TGI in the assay on 786-0 renal, with OVCAR-5 ovarian, in the assay on NCI-H460 lung and in the assay with A549 NSCLC was > 100 µM each time.
In the case of `COc1c2c(cc3nc4ccccc4nc13)CCC(C(C)(C)O)C2` (stereo not given), the TGI in the assay on SF-268 CNS, in the assay on NCI-H23 lung, in the assay with MALME-3M melanoma, with NCI-H226 lung, in the assay on RXF 393 renal and in the assay with OVCAR-3 ovarian was > 100 µM in each case. Moreover, the TGI with 786-0 renal, in the assay on OVCAR-5 ovarian, in the assay with NCI-H460 lung and with A549 NSCLC was > 100 µM each time.
Regarding `N#Cc1nc(C2OC(COC(=O)c3ccccc3)C(OC(=O)c3ccccc3)C2OC(=O)c2ccccc2)oc1N` (stereo not given), the total growth inhibition concentration (TGI) with SF-268 CNS, with NCI-H23 lung, in the assay on MALME-3M melanoma, in the assay with NCI-H226 lung, in the assay on RXF 393 renal and with OVCAR-3 ovarian was > 100 µM throughout. In addition, the TGI with 786-0 renal, in the assay with OVCAR-5 ovarian, with NCI-H460 lung and with A549 NSCLC was > 100 µM each time.
Consider `CC(=O)OC[C@]12CC[C@H]3[C@@H](C[C@H]4O[C@]45[C@@H](O)C=CC(=O)[C@]35C)[C@@H]1CC[C@@H]2[C@H](C)[C@H]1CC(C)=C(C)C(=O)O1`, for which the 50% growth inhibitory concentration (GI50) in the assay on SF-268 CNS is 0.397 µM and 0.376 µM; in the assay on NCI-H23 lung it was 0.185 µM and 0.324 µM; in the assay on MALME-3M melanoma, 1.11 µM; in the assay with NCI-H226 lung, 0.983 µM and 0.583 µM; in the assay with RXF 393 renal it was 0.247 µM and 0.388 µM; in the assay on OVCAR-3 ovarian it was 0.314 µM and 0.176 µM. For the same molecule, the GI50 in the assay on 786-0 renal is 0.241 µM and 0.232 µM; with OVCAR-5 ovarian it was 0.883 µM and 1.21 µM; with NCI-H460 lung, 0.588 µM and 1.07 µM; in the assay with A549 NSCLC it was 0.822 µM and 1.04 µM. Also, the TGI in the assay on SF-268 CNS is 1.28 µM; with NCI-H23 lung, 0.371 µM and 0.858 µM; in the assay on MALME-3M melanoma, 2.4 µM; with NCI-H226 lung, 1.9 µM; in the assay with RXF 393 renal, 0.791 µM and 1.13 µM; in the assay on OVCAR-3 ovarian, 0.842 µM and 0.548 µM. Also, the TGI was 0.597 µM and 0.595 µM in the assay with 786-0 renal; 2.5 µM in the assay with OVCAR-5 ovarian; 3.53 µM with NCI-H460 lung; 3.2 µM in the assay with A549 NSCLC.
For `CN/N=C(/CCN1CCCC1)CC(c1ccccc1)c1c(O)c2ccccc2oc1=O` (stereo not given), the concentration for total growth inhibition (TGI) in the assay with SF-268 CNS, in the assay on NCI-H23 lung, in the assay with MALME-3M melanoma, in the assay with NCI-H226 lung, in the assay with RXF 393 renal and with OVCAR-3 ovarian was > 100 µM throughout. The total growth inhibition concentration (TGI) in the assay on 786-0 renal, with OVCAR-5 ovarian, with NCI-H460 lung and with A549 NSCLC was > 100 µM in each case.
As for `CCCCCCCC(CC(=O)NC(CO)C(=O)NC(CO)CC(C)C)OC(=O)CC(CCCCCCC)OC(=O)CC(CCCCCCC)OC1OC(C)C(O)C(OC2OC(C)C(O)C(OC(C)=O)C2O)C1O` (stereo not given), the concentration for total growth inhibition (TGI) in the assay on SF-268 CNS was found to be 25.9 µM; in the assay on NCI-H23 lung it was 27.9 µM; with MALME-3M melanoma, 33.4 µM; with NCI-H226 lung it was 35.1 µM; in the assay with RXF 393 renal it was 20.9 µM; in the assay on OVCAR-3 ovarian, 23 µM. Besides, the TGI in the assay with 786-0 renal was found to be 26.4 µM; with OVCAR-5 ovarian, 24 µM; in the assay on NCI-H460 lung it was 26.1 µM; in the assay on A549 NSCLC, 25 µM.
`CC(C)c1ccc(C(=O)Nc2sc3c(c2C(N)=O)CCC(=O)C3)cc1`: the GI50 was 0.571 µM in the assay on SF-268 CNS; 0.381 µM in the assay on NCI-H23 lung; 1.65 µM in the assay on MALME-3M melanoma; 2.42 µM in the assay on NCI-H226 lung; 0.354 µM in the assay on RXF 393 renal; 0.421 µM in the assay with OVCAR-3 ovarian. Besides, the GI50 in the assay on 786-0 renal was 2.29 µM; in the assay on OVCAR-5 ovarian it was 1.16 µM; with NCI-H460 lung, 0.849 µM; in the assay on A549 NSCLC it was 1.96 µM. In addition, the total growth inhibition concentration (TGI) was found to be 3.45 µM in the assay with SF-268 CNS; 2.45 µM in the assay on NCI-H23 lung; 4.79 µM in the assay on MALME-3M melanoma; 7.23 µM in the assay with NCI-H226 lung; 1.49 µM in the assay on RXF 393 renal; 1.51 µM in the assay on OVCAR-3 ovarian. For the same molecule, the TGI in the assay on 786-0 renal is 10.5 µM; in the assay with OVCAR-5 ovarian, 3.08 µM; with NCI-H460 lung it was 3.73 µM; with A549 NSCLC it was 13.2 µM.
As for `COc1cc2oc(-c3ccc(O)cc3)cc(=O)c2c(OC)c1OC`, the total growth inhibition concentration (TGI) in the assay on SF-268 CNS, in the assay on NCI-H23 lung, with MALME-3M melanoma, in the assay on NCI-H226 lung, in the assay with RXF 393 renal and in the assay on OVCAR-3 ovarian was > 100 µM in each case. The total growth inhibition concentration (TGI) in the assay on 786-0 renal, with OVCAR-5 ovarian, with NCI-H460 lung and with A549 NSCLC was > 100 µM in each case.

In general, TGI refers to the concentration giving total growth inhibition. High values mean lower sensitivity of the cells, low ones greater sensitivity of the cells. As usually defined, the GI50 is the concentration that inhibits growth by half.
